# According to patent US12303505B2, “Tumor-treating pharmaceutical composition” (Eisai R&D Management Co., Ltd., priority 2017, dated 2025):
# “Also recorded” adds a separate entry of the source. Counter-ions that a name gives are not always drawn.
# Columns and labels:
# Format in all cases: in vivo
# [1] = tested on: Human renal cell carcinoma line A-498 cells; test: Antitumor effect in human renal cell carcinoma line A-498 subcutaneous transplantation model, nude mice
# Description: Human renal cell carcinoma line A-498 cells (ATCC) were cultured by using RPMI1640 medium (Wako Pure Chemical Industries, Ltd.) containing 10% FBS in a 5% COz incubator under conditions of 37° C. When the cells became an approximately 100% confluent state, the cells were recovered by using trypsin-EDTA. A suspension was prepared by adding RPMI1640 medium containing 50% Matrigel to the cells so as to be 5.0×10^7 cells/mL. 0.1 mL of the obtained cell suspension was subcutaneously transplanted to the sides of the bodies of six nude mice (CAnN.Cg-Foxn1^nu/CrlCrlj, Charles River Laboratories Japan, Inc.) each of a control group, an E7386 50 mg/kg alone administration group, a lenvatinib mesylate 10 mg/kg alone administration group, and a combined administration group of 50 mg/kg E7386 and 10 mg/kg lenvatinib mesylate. From 27 days alter the transplantation, E7386 (50 mg/kg, q.d., 14 days, oral administration) and lenvatinib mesylate (10 mg/kg, q.d, 14 days, oral administration) were administered alone or in combination to the alone administration group or the combined administration group. For the administration, E7386 was dissolved in 0.1 mol/L hydrochloric acid, and lenvatinib mesylate was dissolved in 3 mmol/L hydrochloric acid. Any drug was not administered to the control group.
# When the start day of administration was defined as day 1, the major axis and minor axis of tumor developed in each mouse were then measured at day 5, day 8, day 12, and day 15 by using Digimatic Caliper (Mitutoyo Corp.).
# (§1) The tumor volume and the relative tumor volume (RTV) were calculated according to the following expressions. Tumor volume (mm^3)=Tumor major axis (mm)×Tumor minor axis^2 (mm^2)/2 Relative tumor volume (RTV)=Tumor volume at the measurement day/Tumor volume at the start day of administration
# [2] = tested on: Mouse breast cancer 4T1 cells; test: Antitumor effect in mouse breast cancer 4T1 orthotopic transplantation model
# Description: Mouse breast cancer 4T1 cells (ATCC) were cultured by using RPMI1640 medium (Sigma-Aldrich Co. LLC) containing 10% FBS in a 5% CO2 incubator under conditions of 37° C. When the cells became an approximately 80% confluent state, the cells were recovered by using trypsin-EDTA. A suspension was prepared by adding Hank's balanced salt solution so as to be 1.0×10^7 cells/mL. 0.1 mL of the obtained cell suspension was transplanted to the right third mammary gland fat pads of five mice ([…], Charles River Laboratories Japan, Inc.) each of a control group, an E7386 25 mg/kg alone administration group, a lenvatinib mesylate 10 mg/kg alone administration group, and a combined administration group of 25 mg/kg E7386 and 10 mg/kg lenvatinib mesylate. From 9 days after the transplantation, E7386 (25 mg/kg, b.d.s., 14 days, oral administration) and lenvatinib mesylate (10 mg/kg, q.d., 14 days, oral administration) were administered alone or in combination to the alone administration group or the combined administration group. For the administration, E7386 was dissolved in 0.1 mol/L hydrochloric acid, and lenvatinib mesylate was dissolved in 3 mmol/L hydrochloric acid. Any drug was not administered to the control group.
# When the start day of administration was defined as day 1, the major axis and minor axis of tumor developed in each mouse were then measured at day 3, day 6, day 9, and day 14 by using Digimatic Caliper (Mitutoyo Corp.).
# as §1
# [3] = tested on: human anaplastic thyroid cancer cell line HTC/C3; test: Antitumor effect in human anaplastic thyroid cancer cell line HTC/C3 transplantation model, nude mice
# Description: A human anaplastic thyroid cancer cell line HTC/C3 (JCBR Cell Bank) was cultured by using D-MEM High Glucose medium (Wako Pure Chemical Industries, Ltd.) containing 10% FBS in a 5% CO2 incubator under conditions of 37° C. When the cells became an approximately 80% confluent state, the cells were recovered by using trypsin-EDTA. A suspension was prepared by adding Hank's balanced salt solution containing 50% Matrigel to the cells so as to be 1.0×10^7 cells/mL. 0.1 mL of the obtained cell suspension was subcutaneously transplanted to the sides of the bodies of five nude mice (CAnN.Cg-Foxn1^nu/CrlCrlj, Charles River Laboratories Japan, Inc.) each of a control group, an E7386 12.5, 25 or 50 mg/kg alone administration group, a lenvatinib mesylate 10 mg/kg alone administration group, and a combined administration group of 12.5, 25 or 50 mg/kg E7386 and 10 mg/kg lenvatinib mesylate. From 11 days after the transplantation, E7386 (12.5, 25, or 50 mg/kg, b.d.s., 14 days, oral administration) and lenvatinib mesylate (10 mg/kg, q.d., 14 days, oral administration) were administered alone or in combination to the alone administration group or the combined administration group. For the administration, E7386 was dissolved in 0.1 mol/L hydrochloric acid, and lenvatinib mesylate was dissolved in 3 mmol/L hydrochloric acid. 0.1 mol/L hydrochloric acid (b.d.s., 14 days) was administered to the control group.
# When the start day of administration was defined as day 1, the major axis and minor axis of tumor developed in each mouse were then measured at day 4, day 8, day 11, and day 15 by using Digimatic Caliper (Mitutoyo Corp.).
# as §1
# [4] = tested on: Human hepatocellular carcinoma line HepG2 cells; test: Tumor vessel suppressive effect (CD31/α-SMA co-staining, MVD and PCI) in human hepatocellular carcinoma HepG2 subcutaneous transplantation model, nude mice; conditions: FIG. 22; lenvatinib mesylate 10 mg/kg q.d. alone, 14 days oral; vs control group
# Description: For the administration, E7386 was dissolved in 0.1 mol/L hydrochloric acid, and lenvatinib mesylate was dissolved in 3 mmol/L hydrochloric acid. Any drug was not administered to the control group.
# [5] = Day 8, lenvatinib mesylate 10 mg/kg q.d. oral alone
# [6] = Day 15, lenvatinib mesylate 10 mg/kg q.d. oral alone
compound,measurement,setting,value
"C=CCN1CC(=O)N2[C@@H](Cc3ccc(O)cc3F)C(=O)N(Cc3cccc(N4CC(N5CCN(CC)CC5)C4)n3)C[C@@H]2N1C(=O)NCc1ccccc1 [E7386, (6S,9aS)—N-Benzyl-8-({6-[3-(4-ethylpiperazin-1-yl)azetidin-1-yl]pyridin-2-yl}methyl)-6-(2-fluoro-4-hydroxybenzyl)-4,7-dioxo-2-(prop-2-en-1-yl)hexahydro-2H-pyrazino[2,1-c][1,2,4]triazine-1(6H)-carboxamide]","Relative tumor volume (RTV), mean±SD","[1]; Day 5, E7386 50 mg/kg q.d. oral alone",1.33 ± 0.24
same,"Relative tumor volume (RTV), mean±SD","[1]; Day 8, E7386 50 mg/kg q.d. oral alone",1.70 ± 0.26
same,"Relative tumor volume (RTV), mean±SD","[1]; Day 12, E7386 50 mg/kg q.d. oral alone",2.04 ± 0.29
same,"Relative tumor volume (RTV), mean±SD","[1]; Day 15, E7386 50 mg/kg q.d. oral alone",2.29 ± 0.33
same,"Relative tumor volume (RTV), mean±SD","[2]; Day 3, E7386 25 mg/kg b.d.s. oral alone",1.59 ± 0.38
same,"Relative tumor volume (RTV), mean±SD","[2]; Day 6, E7386 25 mg/kg b.d.s. oral alone",1.75 ± 0.42
same,"Relative tumor volume (RTV), mean±SD","[2]; Day 9, E7386 25 mg/kg b.d.s. oral alone",2.17 ± 0.76
same,"Relative tumor volume (RTV), mean±SD","[2]; Day 14, E7386 25 mg/kg b.d.s. oral alone",2.32 ± 0.68
same,"Relative tumor volume (RTV), mean±SD","[3]; Day 4, E7386 12.5 mg/kg b.d.s. oral alone",1.68 ± 0.13
same,"Relative tumor volume (RTV), mean±SD","[3]; Day 4, E7386 25 mg/kg b.d.s. oral alone",1.72 ± 0.10
same,"Relative tumor volume (RTV), mean±SD","[3]; Day 4, E7386 50 mg/kg b.d.s. oral alone",1.74 ± 0.09
same,"Relative tumor volume (RTV), mean±SD","[3]; Day 8, E7386 12.5 mg/kg b.d.s. oral alone",4.02 ± 0.40
same,"Relative tumor volume (RTV), mean±SD","[3]; Day 8, E7386 25 mg/kg b.d.s. oral alone",3.99 ± 0.62
same,"Relative tumor volume (RTV), mean±SD","[3]; Day 8, E7386 50 mg/kg b.d.s. oral alone",4.00 ± 0.66
same,"Relative tumor volume (RTV), mean±SD","[3]; Day 11, E7386 12.5 mg/kg b.d.s. oral alone",6.27 ± 0.93
same,"Relative tumor volume (RTV), mean±SD","[3]; Day 11, E7386 25 mg/kg b.d.s. oral alone",6.44 ± 1.09
same,"Relative tumor volume (RTV), mean±SD","[3]; Day 11, E7386 50 mg/kg b.d.s. oral alone",5.85 ± 1.42
same,"Relative tumor volume (RTV), mean±SD","[3]; Day 15, E7386 12.5 mg/kg b.d.s. oral alone",8.58 ± 2.48
same,"Relative tumor volume (RTV), mean±SD","[3]; Day 15, E7386 25 mg/kg b.d.s. oral alone",8.81 ± 2.14
same,"Relative tumor volume (RTV), mean±SD","[3]; Day 15, E7386 50 mg/kg b.d.s. oral alone",7.83 ± 2.28
"COc1cc2nccc(Oc3ccc(NC(=O)NC4CC4)c(Cl)c3)c2cc1C(N)=O [Lenvatinib mesylate, 4-(3-chloro-4-(cyclopropylaminocarbonyl)aminophenoxy)-7-methoxy-6-quinolinecarboxamide, reference compound]","Relative tumor volume (RTV), mean±SD","[1]; Day 5, lenvatinib mesylate 10 mg/kg q.d. oral alone",1.08 ± 0.18
same,"Relative tumor volume (RTV), mean±SD",[1]; [5],1.35 ± 0.25
same,"Relative tumor volume (RTV), mean±SD","[1]; Day 12, lenvatinib mesylate 10 mg/kg q.d. oral alone",1.21 ± 0.18
same,"Relative tumor volume (RTV), mean±SD",[1]; [6],1.20 ± 0.21
same,"Relative tumor volume (RTV), mean±SD","[2]; Day 3, lenvatinib mesylate 10 mg/kg q.d. oral alone",1.36 ± 0.28
same,"Relative tumor volume (RTV), mean±SD","[2]; Day 6, lenvatinib mesylate 10 mg/kg q.d. oral alone",1.46 ± 0.28
same,"Relative tumor volume (RTV), mean±SD","[2]; Day 9, lenvatinib mesylate 10 mg/kg q.d. oral alone",1.75 ± 0.41
same,"Relative tumor volume (RTV), mean±SD","[2]; Day 14, lenvatinib mesylate 10 mg/kg q.d. oral alone",1.99 ± 0.26
same,PCI (pericyte coverage index) (in words),[4],markedly increased; also recorded: statistically significantly increased pericyte coverage as compared with the control group
same,"Relative tumor volume (RTV), mean±SD","[3]; Day 4, lenvatinib mesylate 10 mg/kg q.d. oral alone",1.71 ± 0.10
same,"Relative tumor volume (RTV), mean±SD",[3]; [5],3.57 ± 0.54
same,"Relative tumor volume (RTV), mean±SD","[3]; Day 11, lenvatinib mesylate 10 mg/kg q.d. oral alone",5.15 ± 1.07
same,"Relative tumor volume (RTV), mean±SD",[3]; [6],6.23 ± 1.71
